Results on 21 molecules are retold here after ChEMBL document CHEMBL1143160, “Novel 3-alkoxy-1H-pyrazolo[3,4-d]pyrimidines as EGFR and erbB2 receptor tyrosine kinase inhibitors” (Bioorg Med Chem Lett, 2008).

A word on the IC50: it is the concentration that gives 50% inhibition. A low value points to greater potency. The term Papp A→B denotes how fast a substance crosses the layer from the apical side. As a reminder, the bioavailability is the share of a dose that reaches the circulation, judged against a reference dose that is usually intravenous. A low value points to poor availability. By half-life is commonly meant the time in which the quantity being followed falls by half. A high value points to slow decline.

Data set [1] in a line: Antiproliferative activity against human BT474C cells. It counts as functional, cell-based.
Data set [2] has as its target T1, Receptor tyrosine-protein kinase erbB-2 (Homo sapiens, UniProt P04626). Description: Inhibition of erbB2.
For data set [3], the target named is T1, Receptor tyrosine-protein kinase erbB-2. Briefly: Inhibition of erB2 autophosphorylation in clone 24 cells. The format is cell-based.
Data set [4] deals with Epidermal growth factor receptor (Homo sapiens, UniProt P00533).
Epidermal growth factor receptor, sequence (P00533 whole entry): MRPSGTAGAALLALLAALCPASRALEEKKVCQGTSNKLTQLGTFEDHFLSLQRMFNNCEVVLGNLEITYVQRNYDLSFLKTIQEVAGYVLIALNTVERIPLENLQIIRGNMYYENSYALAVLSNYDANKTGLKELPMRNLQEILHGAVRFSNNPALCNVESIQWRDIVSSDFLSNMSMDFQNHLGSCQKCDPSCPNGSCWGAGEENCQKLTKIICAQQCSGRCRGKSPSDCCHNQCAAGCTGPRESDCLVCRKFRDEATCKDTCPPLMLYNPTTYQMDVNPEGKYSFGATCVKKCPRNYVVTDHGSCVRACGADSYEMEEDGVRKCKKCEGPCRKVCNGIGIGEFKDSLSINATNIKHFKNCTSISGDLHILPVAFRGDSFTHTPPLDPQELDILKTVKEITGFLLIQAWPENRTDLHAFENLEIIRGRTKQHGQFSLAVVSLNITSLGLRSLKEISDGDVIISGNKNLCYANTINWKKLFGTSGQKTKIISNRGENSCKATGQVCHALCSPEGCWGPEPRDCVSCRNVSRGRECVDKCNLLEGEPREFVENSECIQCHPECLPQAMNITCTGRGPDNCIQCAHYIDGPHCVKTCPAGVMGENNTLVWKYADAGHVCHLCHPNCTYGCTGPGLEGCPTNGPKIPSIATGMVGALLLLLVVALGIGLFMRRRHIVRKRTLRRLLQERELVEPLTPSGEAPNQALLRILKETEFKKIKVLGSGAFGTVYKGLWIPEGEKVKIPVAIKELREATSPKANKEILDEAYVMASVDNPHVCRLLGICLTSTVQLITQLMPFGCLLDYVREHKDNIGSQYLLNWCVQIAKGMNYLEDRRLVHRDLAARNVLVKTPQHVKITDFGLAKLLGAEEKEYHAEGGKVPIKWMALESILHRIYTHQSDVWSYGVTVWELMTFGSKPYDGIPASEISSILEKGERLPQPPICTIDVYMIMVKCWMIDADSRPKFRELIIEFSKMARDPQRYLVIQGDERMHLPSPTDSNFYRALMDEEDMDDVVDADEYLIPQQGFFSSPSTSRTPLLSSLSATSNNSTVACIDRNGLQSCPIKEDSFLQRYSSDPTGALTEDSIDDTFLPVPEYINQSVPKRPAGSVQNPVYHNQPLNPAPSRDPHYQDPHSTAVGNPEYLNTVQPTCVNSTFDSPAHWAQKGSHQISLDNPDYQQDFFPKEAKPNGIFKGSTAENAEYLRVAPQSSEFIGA
For another data set, the system named is P-gp. Briefly: Apparent permeability from apical to basolateral side of the dog MDCK cells expressing P-gp transporter. It counts as ADME, cell-based, Canis lupus familiaris. Conditions: MDCK-MDR1.
A short description of data set [5]: Volume of distribution at steady state in rat at 0.4 mg/kg, iv and 1 mg/kg, po. The format is ADME, organism-based. Conditions: in vivo, read-out: Vdss.
A short description of data set [6]: Volume of distribution at steady state in male and female Beagle dog at 0.2 mg/kg, iv and 0.4 mg/kg, po. The format is ADME, organism-based, Canis lupus familiaris. Conditions: both, in vivo, read-out: Vdss.
Data set [7] can be described thus: Oral bioavailability in rat at 1 mg/kg. It counts as ADME, organism-based. Conditions: in vivo.
A short description of data set [8]: Protein binding in Beagle dog plasma assessed as unbound ligand at 0.2 mg/kg, iv and 0.4 mg/kg, po. The format is ADME, organism-based, Canis lupus familiaris. Conditions: read-out: PPB.
Data set [9] can be described thus: Clearance in rat at 0.4 mg/kg, iv and 1 mg/kg, po. It counts as ADME, organism-based. To be noted: in vivo.
The subject of the next data set is KB. Description: Antiproliferative activity against EGF-induced human KB cells. The format is functional, cell-based.
The nature of data set [10]: Clearance in male and female Beagle dog at 0.2 mg/kg, iv and 0.4 mg/kg, po. The format is ADME, organism-based, Canis lupus familiaris. To be noted: both, in vivo.
Data set [11] is described as follows: Oral bioavailability in male and female Beagle dog at 0.4 mg/kg. The format is ADME, organism-based, Canis lupus familiaris. To be noted: both, in vivo.
Data set [12] is described as follows: Half life in rat at 0.4 mg/kg, iv and 1 mg/kg, po. Conditions: in vivo. It counts as ADME, organism-based.
Data set [13] can be described thus: Half life in male and female Beagle dog at 0.2 mg/kg, iv and 0.4 mg/kg, po. Conditions: both, in vivo. It counts as ADME, organism-based, Canis lupus familiaris.
Data set [14] is described as follows: Protein binding in rat plasma assessed as unbound ligand at 0.4 mg/kg, iv and 1 mg/kg, po. The format is ADME, organism-based.

T1 sequence (P04626 whole entry): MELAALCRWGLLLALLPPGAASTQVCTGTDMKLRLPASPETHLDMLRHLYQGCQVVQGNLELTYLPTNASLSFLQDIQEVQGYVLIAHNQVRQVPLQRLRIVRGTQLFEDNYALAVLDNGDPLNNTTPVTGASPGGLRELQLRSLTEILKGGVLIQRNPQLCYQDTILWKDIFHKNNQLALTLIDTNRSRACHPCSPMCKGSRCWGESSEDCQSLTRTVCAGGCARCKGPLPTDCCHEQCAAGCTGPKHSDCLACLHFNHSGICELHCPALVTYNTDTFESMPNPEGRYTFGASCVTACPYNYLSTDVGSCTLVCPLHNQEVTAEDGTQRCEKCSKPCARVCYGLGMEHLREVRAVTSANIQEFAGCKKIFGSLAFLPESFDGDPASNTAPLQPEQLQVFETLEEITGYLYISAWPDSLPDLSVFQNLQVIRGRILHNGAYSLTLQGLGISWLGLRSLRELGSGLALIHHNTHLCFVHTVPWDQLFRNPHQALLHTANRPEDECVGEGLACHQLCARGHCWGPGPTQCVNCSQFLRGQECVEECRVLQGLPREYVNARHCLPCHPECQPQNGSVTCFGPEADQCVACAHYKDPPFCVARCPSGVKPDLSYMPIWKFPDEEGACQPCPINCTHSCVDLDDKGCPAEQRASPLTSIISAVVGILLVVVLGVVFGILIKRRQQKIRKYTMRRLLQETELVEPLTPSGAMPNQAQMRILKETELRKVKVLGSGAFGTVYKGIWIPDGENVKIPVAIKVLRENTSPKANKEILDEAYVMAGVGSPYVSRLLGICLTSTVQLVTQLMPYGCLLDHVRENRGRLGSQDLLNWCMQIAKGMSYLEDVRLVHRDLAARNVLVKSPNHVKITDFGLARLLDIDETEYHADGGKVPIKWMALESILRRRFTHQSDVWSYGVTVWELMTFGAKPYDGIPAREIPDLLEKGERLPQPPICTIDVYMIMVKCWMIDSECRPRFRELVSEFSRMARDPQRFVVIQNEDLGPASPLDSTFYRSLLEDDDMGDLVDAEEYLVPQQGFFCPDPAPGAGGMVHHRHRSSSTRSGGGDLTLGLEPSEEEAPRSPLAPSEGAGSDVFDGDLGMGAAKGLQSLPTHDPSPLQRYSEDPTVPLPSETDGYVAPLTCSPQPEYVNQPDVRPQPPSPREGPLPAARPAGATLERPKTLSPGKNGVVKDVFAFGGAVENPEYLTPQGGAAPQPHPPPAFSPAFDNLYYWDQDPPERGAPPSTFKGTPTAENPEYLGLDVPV

On to `CN1CCC(Oc2cccc3ncnc(Nc4ccc(OCc5ccccn5)c(Cl)c4)c23)CC1`, for which, in data set [1], the IC50 is 41 nM. That is a double-digit nanomolar value.

With `CNCCOc1n[nH]c2ncnc(Nc3ccc(OCc4ccccn4)c(Cl)c3)c12`, the half-inhibitory concentration (IC50) is 3 nM in data set [2], 1000 nM in data set [3] and 17 nM in data set [4].

For the molecule `Cc1ccc(Oc2ccc(Nc3ncnc4[nH]nc(OCCN5CCC(O)CC5)c34)cc2Cl)cn1`, the IC50 in [2] is under 1 nM; in [3], 184 nM; in data set [4], 7 nM.

For `OC1CCN(CCOc2n[nH]c3ncnc(Nc4ccc(OCc5cccc(F)c5)c(Cl)c4)c23)CC1`, the IC50 in [2] is under 1 nM; in data set [3], 19 nM; in data set [4] it was under 1 nM.

As to `Clc1cc(Nc2ncnc3[nH]nc(OCCN4CCNCC4)c23)ccc1OCc1ccccn1`, the half-maximal inhibitory concentration (IC50) in data set [2] is 3 nM; in [3], 128 nM; in data set [4] it was 8 nM.

On to `Clc1cc(Nc2ncnc3[nH]nc(OCCCN4CCOCC4)c23)ccc1OCc1ccccn1`, for which the half-inhibitory concentration (IC50) in data set [2] was under 1 nM; in [3], 440 nM; in data set [4], 16 nM.

As for `OC1CCN(CCCOc2n[nH]c3ncnc(Nc4ccc(OCc5ccccn5)c(Cl)c4)c23)CC1`, 6 nM corresponded to half-maximal inhibition in data set [2] (IC50).

In the case of `OCCOc1n[nH]c2ncnc(Nc3ccc(OCc4ccccn4)c(Cl)c3)c12`, the values for the IC50 in [2] and in data set [4] were 4 nM and 16 nM, respectively.

As to `Cc1ccc(Oc2ccc(Nc3ncnc4[nH]nc(OCCN5CCC(O)CC5)c34)cc2C)cn1`, the values for the IC50 in data set [2] and in [3] were 11 nM and 415 nM, respectively.

On to `Cc1ccc(Oc2ccc(Nc3ncnc4[nH]nc(OCCN5CCC(O)CC5)c34)cc2F)cn1`, for which the IC50 in [2] amounted to 5 nM; in [4] it was 1430 nM.

As for `CC(=O)N1CCN(CCOc2n[nH]c3ncnc(Nc4ccc(OCc5ccccn5)c(Cl)c4)c23)CC1`, the 50% inhibitory concentration (IC50) was under 1 nM in [2], 129 nM in [3] and 3 nM in data set [4].

With `CN1CCN(CCOc2n[nH]c3ncnc(Nc4ccc(OCc5ccccn5)c(Cl)c4)c23)CC1`, the IC50 in [1] was determined as 17 nM; in [2] it was 1 nM; in data set [3], 166 nM; in data set [4] it was 5 nM; in the data set with KB, 220 nM. In addition, the Papp A→B with P-gp is 9.5 ×10⁻⁶ cm/s. Further, the Vd in data set [5] came to 4.5 L/kg; in data set [6], 9 L/kg. Moreover, the results for the bioavailability in data set [7] and in data set [11] were 23% and 30%, respectively. The results for the fraction unbound in data set [8] and in data set [14] were 0.21 and 0.1, respectively. The clearance in data set [9] came out at 41 mL/min/kg; in [10], 46 mL/min/kg. For the same molecule, the figures for the half-life in [12] and in data set [13] were 1.4 h and 2.4 h, respectively.

As for `Clc1cc(Nc2ncnc3n[nH]c(OCCN4CCCCCO4)c23)ccc1OCc1ccccn1`, the IC50 in data set [2] is under 1 nM; in data set [3] it was 148 nM; in data set [4], under 1 nM.

As for `Clc1cc(Nc2ncnc3[nH]nc(OCCN4CCOCC4)c23)ccc1OCc1ccccn1`, the IC50 was under 1 nM in [2] and 1 nM in data set [4].

Turning to `CN1CCN(CCCOc2n[nH]c3ncnc(Nc4ccc(OCc5ccccn5)c(Cl)c4)c23)CC1`, the 50% inhibitory concentration (IC50) in [2] is 4 nM; in data set [4], 14 nM.

As to `COc1cc(Nc2ncnc3[nH]nc(OCCN4CCC(O)CC4)c23)ccc1OCc1ccccn1`, the IC50 is 17 nM in data set [2] and 1480 nM in data set [3].

Consider `COc1cc(Nc2ncnc3[nH]nc(OCCN4CCC(O)CC4)c23)ccc1OCc1cccc(F)c1`, for which the concentration for half-maximal inhibition (IC50) in data set [2] came to 3 nM; in [3] it was 613 nM; in data set [4], 13 nM.

As for `Cc1cc(Nc2ncnc3[nH]nc(OCCN4CCC(O)CC4)c23)ccc1OCc1ccccn1`, the values for the half-inhibitory concentration (IC50) in data set [2], in [3] and in data set [4] were 5 nM, 695 nM and 18 nM, respectively.

Consider `OC1CCN(CCOc2n[nH]c3ncnc(Nc4ccc(OCc5ccccn5)c(Cl)c4)c23)CC1`, for which the IC50 in data set [2] came out at 5 nM; in data set [3] it was 135 nM; in data set [4], 13 nM.

Take `COC1CCN(CCOc2n[nH]c3ncnc(Nc4ccc(OCc5ccccn5)c(Cl)c4)c23)CC1`: the IC50 in [2] is 4 nM; in data set [3], 82 nM; in [4] it was 28 nM.

For `Cc1cc(Nc2ncnc3[nH]nc(OCCN4CCC(O)CC4)c23)ccc1OCc1cccc(F)c1`, the IC50 in data set [2] is under 1 nM; in data set [3] it was 107 nM; in data set [4] it was under 1 nM.
